Measurements: ChEMBL document CHEMBL3885881, “DrugMatrix”

Species: Rattus norvegicus
Assay: DrugMatrix - Regimen: Daily Repeat
Format: toxicity, organism-based, Sprague-Dawley
Parameters: regimen Daily Repeat, gender Male, age 6-8 weeks
Details: in vivo, po, 0 mg/kg, route oral GAVAGE, dose level Control, […]; for ABSOLUTE BASOPHIL / ABSOLUTE EOSINOPHIL / ABSOLUTE LYMPHOCYTE / ABSOLUTE MONOCYTE / ABSOLUTE SEGMENTED NEUTROPHIL / BASOPHIL / EOSINOPHIL / ERYTHROCYTE COUNT / HEMATOCRIT / HEMOGLOBIN / LEUKOCYTE COUNT / LYMPHOCYTE / MEAN CORPUSCULAR HEMOGLOBIN / MEAN CORPUSCULAR HEMOGLOBIN CONCENTRATION / MEAN CORPUSCULAR VOLUME / MONOCYTE / NEUTROPHIL / NUCLEATED RED BLOOD CELLS / PLATELET COUNT: tissue Blood
[1] = 72 h, tissue Plasma, time 3 day
[2] = 120 h, tissue Plasma, time 5 day

`O=NN(CCCl)C(=O)NC1CCCCC1` [LOMUSTINE] was tested. Which “ABSOLUTE BASOPHIL” value (72 h, time 3 day) did it give?
The value was 0 CELLS/uL.

What about the “ABSOLUTE EOSINOPHIL” value (72 h, time 3 day) of the same molecule?
Its value is 70.67 CELLS/uL.

And the “ABSOLUTE LYMPHOCYTE” value (72 h, time 3 day)?
Its value is 12761.5 CELLS/uL.

And the “ABSOLUTE MONOCYTE” value (72 h, time 3 day)?
The value was 214.17 CELLS/uL.

What about the “ABSOLUTE SEGMENTED NEUTROPHIL” value (72 h, time 3 day) of the same molecule?
Its value is 987 CELLS/uL.

What about the BASOPHIL (72 h, time 3 day) of the same molecule?
Its BASOPHIL is 0%.

What about the EOSINOPHIL (72 h, time 3 day) of the same molecule?
Its EOSINOPHIL is 0.5%.

And the “ERYTHROCYTE COUNT” value (72 h, time 3 day)?
The value was 5.61 x10E6/uL.

What about the HEMATOCRIT (72 h, time 3 day) of the same molecule?
The HEMATOCRIT was 35.22%.

What about the HEMOGLOBIN (72 h, time 3 day) of the same molecule?
Its HEMOGLOBIN is 13.57 G/DL.

And the “LEUKOCYTE COUNT” value (72 h, time 3 day)?
The value was 14.03 x10E3/uL.

And the LYMPHOCYTE (72 h, time 3 day)?
The LYMPHOCYTE was 91%.

What about the “MEAN CORPUSCULAR HEMOGLOBIN” value (72 h, time 3 day) of the same molecule?
The value was 24.25 pg.

What about the “MEAN CORPUSCULAR HEMOGLOBIN CONCENTRATION” value (72 h, time 3 day) of the same molecule?
Its value is 38.52 G/DL.

And the “MEAN CORPUSCULAR VOLUME” value (72 h, time 3 day)?
Its value is 62.9 fL.

What about the MONOCYTE (72 h, time 3 day) of the same molecule?
The MONOCYTE was 1.5%.

What about the NEUTROPHIL (72 h, time 3 day) of the same molecule?
The NEUTROPHIL was 7%.

And the “NUCLEATED RED BLOOD CELLS” value (72 h, time 3 day)?
The value was 0 /100WBC.

What about the “PLATELET COUNT” value (72 h, time 3 day) of the same molecule?
Its value is 997.5 x10E3/uL.

And the “ALANINE AMINOTRANSFERASE” value [1]?
The value was 66.5 u/L.

And the ALBUMIN [1]?
The ALBUMIN was 3.98 G/DL.

What about the “ALKALINE PHOSPHATASE” value [1] of the same molecule?
The value was 350 u/L.

What about the “ASPARTATE AMINOTRANSFERASE” value [1] of the same molecule?
Its value is 83.83 u/L.

What about the “BLOOD UREA NITROGEN” value [1] of the same molecule?
The value was 12.33 mg/dL.

And the “CARBON DIOXIDE” value [1]?
The value was 30.33 mmol/L.

What about the CHLORIDE [1] of the same molecule?
Its CHLORIDE is 100 MEQ/L.

What about the CHOLESTEROL [1] of the same molecule?
Its CHOLESTEROL is 75 mg/dL.

And the “CREATINE PHOSPHOKINASE” value [1]?
The value was 200 u/L.

And the CREATININE [1]?
Its CREATININE is 0.17 mg/dL.

What about the GLUCOSE [1] of the same molecule?
Its GLUCOSE is 170 mg/dL.

What about the “LACTATE DEHYDROGENASE” value [1] of the same molecule?
Its value is 89.33 u/L.

And the LIPASE [1]?
The LIPASE was 10.33 u/L.

And the PHOSPHORUS [1]?
The PHOSPHORUS was 10.88 mg/dL.

What about the POTASSIUM [1] of the same molecule?
The POTASSIUM was 6.13 MEQ/L.

What about the SODIUM [1] of the same molecule?
The SODIUM was 140.53 MEQ/L.

What about the “TOTAL BILIRUBIN” value [1] of the same molecule?
Its value is 0.2 mg/dL.

And the “TOTAL PROTEIN” value [1]?
Its value is 5.67 G/DL.

And the “URIC ACID” value [1]?
The value was 1.6 mg/dL.

What about the “ABSOLUTE BASOPHIL” value (120 h, time 5 day) of the same molecule?
Its value is 0 CELLS/uL.

And the “ABSOLUTE EOSINOPHIL” value (120 h, time 5 day)?
The value was 0 CELLS/uL.

And the “ABSOLUTE LYMPHOCYTE” value (120 h, time 5 day)?
The value was 9526.67 CELLS/uL.

And the “ABSOLUTE MONOCYTE” value (120 h, time 5 day)?
Its value is 134.17 CELLS/uL.

And the “ABSOLUTE SEGMENTED NEUTROPHIL” value (120 h, time 5 day)?
Its value is 922.5 CELLS/uL.

And the BASOPHIL (120 h, time 5 day)?
The BASOPHIL was 0%.

And the EOSINOPHIL (120 h, time 5 day)?
Its EOSINOPHIL is 0%.

What about the “ERYTHROCYTE COUNT” value (120 h, time 5 day) of the same molecule?
Its value is 5.58 x10E6/uL.

What about the HEMATOCRIT (120 h, time 5 day) of the same molecule?
Its HEMATOCRIT is 34.78%.

And the HEMOGLOBIN (120 h, time 5 day)?
The HEMOGLOBIN was 13.5 G/DL.

And the “LEUKOCYTE COUNT” value (120 h, time 5 day)?
The value was 10.58 x10E3/uL.

And the LYMPHOCYTE (120 h, time 5 day)?
Its LYMPHOCYTE is 90.17%.

What about the “MEAN CORPUSCULAR HEMOGLOBIN” value (120 h, time 5 day) of the same molecule?
The value was 24.27 pg.

And the “MEAN CORPUSCULAR HEMOGLOBIN CONCENTRATION” value (120 h, time 5 day)?
Its value is 38.82 G/DL.

And the “MEAN CORPUSCULAR VOLUME” value (120 h, time 5 day)?
The value was 62.48 fL.

What about the MONOCYTE (120 h, time 5 day) of the same molecule?
The MONOCYTE was 1.17%.

And the NEUTROPHIL (120 h, time 5 day)?
Its NEUTROPHIL is 8.67%.

And the “NUCLEATED RED BLOOD CELLS” value (120 h, time 5 day)?
The value was 0.17 /100WBC.

What about the “PLATELET COUNT” value (120 h, time 5 day) of the same molecule?
The value was 807.17 x10E3/uL.

And the “ALANINE AMINOTRANSFERASE” value [2]?
The value was 66.83 u/L.

And the ALBUMIN [2]?
The ALBUMIN was 3.73 G/DL.

And the “ALKALINE PHOSPHATASE” value [2]?
The value was 286.17 u/L.

And the “ASPARTATE AMINOTRANSFERASE” value [2]?
Its value is 142.33 u/L.

And the “BLOOD UREA NITROGEN” value [2]?
The value was 14.67 mg/dL.

And the “CARBON DIOXIDE” value [2]?
The value was 25.5 mmol/L.

And the CHLORIDE [2]?
Its CHLORIDE is 89.17 MEQ/L.

What about the CHOLESTEROL [2] of the same molecule?
The CHOLESTEROL was 75.17 mg/dL.

And the “CREATINE PHOSPHOKINASE” value [2]?
Its value is 310.67 u/L.

What about the CREATININE [2] of the same molecule?
The CREATININE was 0.2 mg/dL.

And the GLUCOSE [2]?
The GLUCOSE was 153 mg/dL.

What about the “LACTATE DEHYDROGENASE” value [2] of the same molecule?
The value was 1594 u/L.

And the LIPASE [2]?
Its LIPASE is 14.83 u/L.

What about the PHOSPHORUS [2] of the same molecule?
The PHOSPHORUS was 11.28 mg/dL.

What about the POTASSIUM [2] of the same molecule?
Its POTASSIUM is 8.46 MEQ/L.

And the SODIUM [2]?
The SODIUM was 126.88 MEQ/L.

What about the “TOTAL BILIRUBIN” value [2] of the same molecule?
Its value is 0.37 mg/dL.

And the “TOTAL PROTEIN” value [2]?
The value was 5.53 G/DL.
